Test results reported in patent US9993459B2, “Selective HDAC6 inhibitors and uses thereof” (Universiteit Gent, priority 2015, dated 2018).

How the values were obtained:
NF-κβ = assay: NF-κβ-dependent luciferase reporter p(IL6kB)350hu.IL6P-luc in TNF-activated A549 cells; assay type: cell-based; details: TNF-activated A549, 1 μM or 10 μM
Method: (§1) FIG. 2: A549 cells with the stably integrated recombinant reporter gene p(GRE)2-50-luc (A) were pre-incubated with respective solvents, the selective Glucocorticoid Receptor modulator CpdA (10 μM), 7a, (1 μM or 10 μM), 7b (1 μM or 10 μM), 13a (1 μM or 10 μM) for 1 h after which the synthetic glucocorticoid dexamethasone (DEX,1 μM) was added, where indicated, for 5 h. A549 cells with the stably integrated recombinant reporter gene p(IL6kB)350hu.IL6P-luc (B) or Collagenase-luc (C) were pre-incubated with respective solvents, DEX (1 μM), CpdA (10 μM), 7a, (1 μM or 10 μM), 7b (1 μM or 10 μM), 13a (1 μM or 10 μM) for 1 h after which TNF (2000 units/ml) or PMA (20 nM) were added, where indicated, for 5 h. Cell lysates were assayed for luciferase activities. Promoter activities are expressed as relative induction factor calculated as percentage of maximal DEX (A), TNF (B) or PMA (C) responses. […] Assays were performed in triplicate, and results are averages of at least three independent experiments and shown ±S.D. ****p<0.0001; ***p<0.001; **p<0.01; *p<0.05. Statistical significance was determined on the averaged results, and analysis performed using one-way ANOVA tests followed by a Tukey multiple comparison post test. […]

HDAC3 = HDAC3 (Homo sapiens, UniProt O15379); assay: In vitro HDAC isozyme selectivity screen: HDAC3; assay type: biochemical
AP-1 = assay: AP1-dependent luciferase reporter pCollagenase-luc in PMA-treated A549 cells; assay type: cell-based; details: A549, 10 μM
Method: as §1

HDAC3, sequence (O15379 whole entry, species assumed): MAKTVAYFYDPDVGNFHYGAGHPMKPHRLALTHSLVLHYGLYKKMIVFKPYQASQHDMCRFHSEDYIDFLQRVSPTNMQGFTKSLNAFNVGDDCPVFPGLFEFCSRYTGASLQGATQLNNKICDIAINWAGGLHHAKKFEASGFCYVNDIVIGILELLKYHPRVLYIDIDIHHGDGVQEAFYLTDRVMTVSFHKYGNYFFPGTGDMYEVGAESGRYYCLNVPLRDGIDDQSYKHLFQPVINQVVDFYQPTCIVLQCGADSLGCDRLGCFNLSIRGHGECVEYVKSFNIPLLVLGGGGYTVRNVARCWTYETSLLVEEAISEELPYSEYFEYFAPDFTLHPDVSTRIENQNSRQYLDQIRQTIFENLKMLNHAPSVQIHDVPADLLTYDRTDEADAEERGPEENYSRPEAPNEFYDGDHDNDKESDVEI
HDAC3, sequence (Q9Y618 395-489 partner limits assumed, species assumed): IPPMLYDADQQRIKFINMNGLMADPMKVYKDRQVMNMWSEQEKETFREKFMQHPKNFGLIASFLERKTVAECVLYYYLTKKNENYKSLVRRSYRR

effect at 100 μM, HDAC3 (HDAC3; 100 μM)	IC50 (HDAC3; Table 2)	Compound	melting point	block of the activity of NF-κβ (NF-κβ)	AP1-dependent promoter activity as compared to solvent control (DMSO) (AP-1)
–	–	O=C(NO)c1ccc(NCc2csc3ccccc23)cc1 [Compound 7a, 3-[(4-hydroxycarbamoylphenyl)aminomethyl]benzothiophene]	191 °C	not able to block the activity of NF-κβ	–
less than 50%	–	O=C(NO)c1ccc(NCc2csc3ccc(Br)cc23)cc1 [Compound 7b, 5-bromo-3-[(4-hydroxycarbamoylphenyl)aminomethyl]-benzothiophene]	–	not able to block the activity of NF-κβ	clearly induced the AP1-dependent promoter activity
–	6.6 µM	O=C(NO)c1ccc(NCc2csc3cc(Br)ccc23)cc1 [Compound 13a, 6-bromo-3-[(4-hydroxycarbamoylphenyl)aminomethyl]-benzothiophene]	179.5 °C	–	–
